Key:
[1] = test system: HLA-E on HT29 and SW620 cells; assay: Flow cytometry of surface HLA-E after IFN-gamma, STAT1 KO vs control KO; assay type: cell-based, human; settings: HT29 and SW620, 5 ng/ml IFN-gamma overnight
Description: (§1) HT29 and SW620 cells were transduced with sgRNAs against STAT1 (or control OR genes) and treated overnight with vs. without 5 ng/ml IFN-gamma prior to staining. […] FIG. 6D CTG cytotoxicity assays (see Methods) for HT29 cells with HLA-E KO compared with control KO (data are represented as CTG cytotoxicity assays for HT29, SW620 cells with sgRNA against STAT1 (left) or HLA-E (right) or control KO (using OR10A2) at E:T 1:1, using 3-4 donors per line, n=7 different co-cultures, each co-culture was conducted in 6 replicates. (STAT1 p=7.24E-6, HLA-E p=2.27E-7, Mann-Whitney two sided test n=42). Data are represented as mean±SD). […] Pools of cells of the PRISM DNA-barcoded cell lines were labeled with a fluorescent conjugated antibody, sorted by flow cytometer into four bins based on its fluorescence levels and then sequenced to quantify the read counts of each barcode (and thus presence of cells from each cell line) in each bin. Surface protein expression scores were calculated per line from the read counts in each bin (see Method). […] Upper right: Normalized read counts of each bin sorted by SPIN. In view of the dynamic range of the antibody staining, the four bins were combined into two; reads from the top 2 bins with highest expression are labeled ‘High’ and reads from the 2 bins with lower staining are labeled ‘Low’. Middle right: calculated protein scores. […]

[2] = test system: HLA-A/B/C on HT29 and SW620 cells; assay: Flow cytometry of surface HLA-A/B/C after IFN-gamma, STAT1 KO vs control KO; assay type: cell-based, human; settings: HT29 and SW620, 5 ng/ml IFN-gamma overnight
Description: as §1

IFN-gamma: interferon-gamma used to stimulate HLA-E and MHC class I expression on tumor cells
HLA-E surface expression upon IFN-gamma stimulation [1]: upregulated in control KO, but not with STAT1 KO
HLA-A/B/C surface expression upon IFN-gamma stimulation [2]: further increased with IFN-gamma stimulation in the control KO, but not in STAT1 KO cells
